Experimental findings from US12642773B2, “Coated drug compositions and methods of preparing the same” (Applied Materials, Inc., priority 2020, dated 2026) are described below.

The nature of this data set: Solubility of ezetimibe. It counts as physicochemical. An excerpt:
Crystallization decreases the solubility of ezetimibe. […] In contrast, the release rate from coated 50% drug loading ASD particles barely changed.

≈ marks a conversion by molar mass, not a printed value.

As usually defined, the solubility is the dissolved amount per volume that the medium holds. With `O=C1[C@H](CC[C@H](O)c2ccc(F)cc2)[C@@H](c2ccc(O)cc2)N1c1ccc(F)cc1` [amorphous ezetimibe, ezetimibe], the solubility was 20.2 ± 0.4 µg/mL (≈ 49.3 µM).
With `O=C1[C@H](CC[C@H](O)c2ccc(F)cc2)[C@@H](c2ccc(O)cc2)N1c1ccc(F)cc1` [crystalline ezetimibe, ezetimibe], the solubility turned out to be 0.8 ± 0.3 µg/mL (≈ 1.95 µM).
